Results on 17 compounds are retold here after paper PMC11487905, “Dalbavancin-resistant Staphylococcus epidermidis in vivo selection following a prosthetic joint infection: phenotypic and genomic characterization” (JAC-Antimicrobial Resistance, 2024).

The structures appear in SMILES notation. Values after ≈ are worked out from the molar mass of the structure shown. Some results are limits rather than exact numbers.

The subject of series [1] is linezolid-resistant MDR S. epidermidis (LR-MDRSE) isolates. Put plainly: microbe, parasite or virus in culture. In kind it is cell-based, Staphylococcus epidermidis. Conditions: for Increase of MIC between isolates: STA1 (Day 24) to STA3 (Day 240). The protocol:
Isolates were identified by MALDI-TOF mass spectrometry (VITEK MS, bioMérieux, Marcy-l’Étoile, France). Antibiotic susceptibility testing was performed using the AST-P668 bioMérieux card using a VITEK XL automated system (bioMérieux). Dalbavancin, ceftaroline, delafloxacin, tigecycline and daptomycin MICs were determined using a 0.5 McFarland bacterial inoculum on Mueller–Hinton agar plates with gradient strips (Liofilchem, Roseto degli Abruzzi, Italy) incubated for 24 h at 35°C. Interpretation of the susceptibility was made according to the EUCAST 2022 criteria.

A short description of series [2]: Dalbavancin therapeutic drug monitoring: plasma trough concentration and extrapolated fAUC0–24/MIC. Type of series: in vivo, patient. Conditions: for Plasma trough concentration: 1500 mg IV, LC-MS. An excerpt:
We therefore used this methodology for fAUC0–24 determination.

For series [3] the following is noted: cited from earlier work. The procedure: Dalbavancin has a similar mechanism of action and spectrum as vancomycin but with increased potency, higher protein binding and an elimination half-life up to 60 times longer.[10] […] N ... || Because of the long-term duration, dalbavancin therapeutic drug monitoring was performed. Plasma trough concentrations were measured using a validated LC coupled with MS method (Acquity UPLC® BEH C18 and Acquity QDA, Waters, France). […] We therefo ... || Moreover, the clinical infections caused by biofilms poses a serious threat to public health. Staphylococcus spp. biofilms stand out as one of the most prevalent, especially in osteoarticular infection and PJI. […] Thus, new therapeutic strategies targeting biofilms and MDR bacteria are urgently needed.

The next series relates to S. aureus. Conditions: seven isolates of S. aureus (including four vancomycin-intermediate strains); ref 14 (Lepak et al.); cited from earlier work. An excerpt:
fAUC0–24/MIC best correlates with in vivo efficacy of dalbavancin.[13]

Another series relates to LR-MDRSE PJI. Type of series: in vivo, patient. The procedure: A person underwent a revision of a medial unicompartmental knee arthroplasty to total knee arthroplasty (TKA) for progressive arthritis of the lateral joint.
It was subsequently decided to perform debridement, antibiotics and implant retention (DAIR) with a change of modular implants. […] A treatment shift to dalbavancin 1500 mg IV on Days 35, 49, 71 and 106, combined with doxycycline 200 mg/day for 3 months was initiated.
The evolution was considered unfavourable due to a loco-regional inflammatory syndrome with persistent chronic pain.
A revision of the knee was decided upon, with five bacteriological samples collected. As previously, they tested positive with the same LR-MDRSE strain (Day 371). Ceftaroline (1800 mg/day) and doxycycline (200 mg/day) combination treatment was administered for the next 12 weeks. […] His C-reactive protein level was <4 mg/L (reference range: <4 mg/L). However, suppressive doxycycline therapy was maintained (200 mg/day).

Where [4] appears, read: Staphylococcus epidermidis, 576 h.
[5] abbreviates: Staphylococcus epidermidis, isolate STA1, Day 24, gradient strip, 0.5 McFarland, Mueller–Hinton agar, 24 h at 35°C.
Where [6] appears, read: Staphylococcus epidermidis, isolate STA3, Day 240, gradient strip, 0.5 McFarland, Mueller–Hinton agar, 24 h at 35°C.
Where [7] appears, read: after four injections of dalbavancin 1500 mg IV.
Setting [8] is: ceftaroline 1800 mg/day combined with doxycycline 200 mg/day for 12 weeks after knee revision.

As for `Cc1onc(-c2ccccc2)c1C(=O)N[C@@H]1C(=O)N2[C@@H]1SC(C)(C)[C@@H]2C(=O)O` [Oxacillin], the MIC in series [1] (Staphylococcus epidermidis) and in series [1] (setting [4]) was more than 2 µg/mL in each case.
For `Nc1nc(-n2cc(C(=O)O)c(=O)c3cc(F)c(N4CC(O)C4)c(Cl)c32)c(F)cc1F` [Delafloxacin], the values for the MIC in series [1] (setting [5]) and in series [1] (setting [6]) were 1 µg/mL (≈ 2.27 µM) and 8 µg/mL (≈ 18.2 µM), respectively.
On to `CCC[C@@H]1C[C@@H](C(=O)N[C@@H]([C@H]2O[C@H](SC)[C@H](O)[C@@H](O)[C@H]2O)[C@@H](C)O)N(C)C1` [Lincomycin], for which the MIC in series [1] (Staphylococcus epidermidis) and in series [1] (setting [4]) was more than 8 µg/mL each time.
Take `CCCCCCCCCC(=O)N[C@@H](Cc1c[nH]c2ccccc12)C(=O)N[C@H](CC(N)=O)C(=O)N[C@@H](CC(=O)O)C(=O)N[C@@H]1C(=O)NCC(=O)N[C@@H](CCCN)C(=O)N[C@@H](CC(=O)O)C(=O)N[C@H](C)C(=O)N[C@@H](CC(=O)O)C(=O)NCC(=O)N[C@H](CO)C(=O)N[C@@H]([C@H](C)CC(=O)O)C(=O)N[C@@H](CC(=O)c2ccccc2N)C(=O)O[C@@H]1C` [Daptomycin]: in series [1] (setting [7]), the “Increase of MIC between isolates” value is 6 fold.
As to `CN[C@H]1C(=O)N[C@@H]2Cc3ccc(cc3)Oc3cc4cc(c3O[C@@H]3O[C@H](C(=O)O)[C@@H](O)[C@H](O)[C@H]3NC(=O)CCCCCCCCC(C)C)Oc3ccc(cc3Cl)[C@@H](O)[C@@H]3NC(=O)[C@H](NC(=O)[C@@H]4NC(=O)[C@@H](NC2=O)c2cc(cc(O)c2Cl)Oc2cc1ccc2O)c1ccc(O)c(c1)-c1c(O[C@H]2O[C@H](CO)[C@@H](O)[C@H](O)[C@@H]2O)cc(O)cc1[C@@H](C(=O)NCCCN(C)C)NC3=O` [Dalbavancin], the Plasma trough concentration in series [2] (Day 49, 14 days after the last dose) was 18 mg/L; in series [2] (Day 71, 22 days after the last dose), 23.6 mg/L; in series [2] (Day 106, 35 days after the last dose), 14.6 mg/L. Besides, the “Calculated fAUC0–24/MIC ratio” value in series [2] (Day 49, assuming an MIC of 0.032 mg/L, extrapolated from single trough, 93% protein bound) was 945; in series [2] (Day 49, assuming an MIC of 0.5 mg/L) it was 60; in series [2] (Day 71, assuming an MIC of 0.032 mg/L), 1239; in series [2] (Day 71, assuming an MIC of 0.5 mg/L) it was 79; in series [2] (Day 106, assuming an MIC of 0.032 mg/L) it was 766.5; in series [2] (Day 106, assuming an MIC of 0.5 mg/L), 49. Besides, the “Elimination half-life relative to vancomycin” value in series [3] is listed as “up to 60 times longer”. The “Bound to plasma proteins” value in series [3] (plasma) is on record as 93%. In addition, the Half-life entry in series [3] (prolonged half-life) is on record as “about 14 days”. The “fAUC0–24/MIC value for 1-log kill” value in the series with S. aureus was 53.3. In addition, in the series on S. aureus, the “fAUC0–24/MIC value for 2-log kill” value is given as 111.1. The “fAUC0–24/MIC value for net stasis” value in the series with S. aureus is 27.1. Moreover, in series [1] (setting [7]), the “Increase of MIC between isolates” value amounted to 4 fold. Also, the “Susceptibility of the strain (in words)” value in series [1] (STA1, Day 24) is “susceptible”; in series [1] (STA3, Day 240), “resistant”. The MIC came out at 0.032 µg/mL (≈ 0.0176 µM) in series [1] (isolate STA1, Day 24, gradient strip, 0.5 McFarland, Mueller–Hinton agar, 24 h at 35°C) and 0.5 µg/mL (≈ 0.275 µM) in series [1] (isolate STA3, Day 240, gradient strip, 0.5 McFarland, Mueller–Hinton agar, 24 h at 35°C). Besides, in the series with LR-MDRSE PJI (dalbavancin 1500 mg IV on Days 35, 49, 71 and 106, combined with doxycycline 200 mg/day for 3 months, after DAIR), the “Clinical outcome of treatment” value is listed as “treatment failure”.
`CN(C)c1cc(NC(=O)CNC(C)(C)C)c(O)c2c1C[C@H]1C[C@H]3[C@H](N(C)C)C(O)=C(C(N)=O)C(=O)[C@@]3(O)C(O)=C1C2=O` [Tigecycline]: the MIC was 0.19 µg/mL (≈ 0.324 µM) in series [1] (setting [5]) and 0.25 µg/mL (≈ 0.427 µM) in series [1] (setting [6]).
As for `CC(=O)NC[C@H]1CN(c2ccc(N3CCOCC3)c(F)c2)C(=O)O1` [Linezolid], the “Susceptibility of the strain (in words)” value in series [1] (STA1, Day 24) was “resistant”. The MIC in series [1] (Staphylococcus epidermidis) and in series [1] (setting [4]) was more than 4 µg/mL each time.
For `CC(=O)O[C@H]1C[C@@]2(C)[C@@H](C[C@@H](O)[C@H]3[C@@]4(C)CC[C@@H](O)[C@@H](C)[C@@H]4CC[C@@]32C)/C1=C(\CCC=C(C)C)C(=O)O` [Fusidic acid], the MIC in series [1] (Staphylococcus epidermidis) and in series [1] (setting [4]) was more than 4 µg/mL each time.
Regarding `CC1COc2c(N3CCN(C)CC3)c(F)cc3c(=O)c(C(=O)O)cn1c23` (centres unmarked) [Ofloxacin], the MIC in series [1] (Staphylococcus epidermidis) and in series [1] (setting [4]) was more than 4 µg/mL throughout.
As for `CCO/N=C(\C(=O)N[C@@H]1C(=O)N2C(C(=O)[O-])=C(Sc3nc(-c4cc[n+](C)cc4)cs3)CS[C@H]12)c1nsc(N)n1` [Ceftaroline], the “Susceptibility of the strain (in words)” value in series [1] (STA1, Day 24) is “susceptible”; in series [1] (STA3, Day 240), “susceptible”. Besides, the MIC in series [1] (setting [5]) is 1 µg/mL (≈ 1.65 µM); in series [1] (setting [6]), 0.75 µg/mL (≈ 1.24 µM). The “Clinical evolution under treatment” value with LR-MDRSE PJI (setting [8]) is “favourable”. The Tolerability of treatment entry in the series on LR-MDRSE PJI (setting [8]) is listed as “well tolerated”.
In the case of `C[C@@H]1O[C@@H]1P(=O)(O)O` [Fosfomycin], the MIC in series [1] (Staphylococcus epidermidis) and in series [1] (setting [4]) was more than 64 µg/mL each time.
`NC[C@H]1O[C@H](O[C@H]2[C@H](O)[C@@H](O[C@H]3O[C@H](CO)[C@@H](O)[C@H](N)[C@H]3O)[C@H](N)C[C@@H]2N)[C@H](N)C[C@@H]1O` [Tobramycin]: the MIC in series [1] (Staphylococcus epidermidis) and in series [1] (setting [4]) was more than 8 µg/mL throughout.
As for `CO[C@H]1/C=C/O[C@@]2(C)Oc3c(C)c(O)c4c(O)c(c(/C=N/N5CCN(C)CC5)c(O)c4c3C2=O)NC(=O)/C(C)=C\C=C\[C@H](C)[C@H](O)[C@@H](C)[C@@H](O)[C@@H](C)[C@H](OC(C)=O)[C@@H]1C` [Rifampin], the “Susceptibility of the strain (in words)” value in series [1] (STA1, Day 24) is on record as “resistant”. For the same compound, the MIC in series [1] (Staphylococcus epidermidis) and in series [1] (setting [4]) was more than 2 µg/mL each time.
Regarding `CN[C@H](CC(C)C)C(=O)N[C@H]1C(=O)N[C@@H](CC(N)=O)C(=O)N[C@H]2C(=O)N[C@H]3C(=O)N[C@H](C(=O)N[C@H](C(=O)O)c4cc(O)cc(O)c4-c4cc3ccc4O)[C@H](O)c3ccc(c(Cl)c3)Oc3cc2cc(c3O[C@@H]2O[C@H](CO)[C@@H](O)[C@H](O)[C@H]2O[C@H]2C[C@](C)(N)[C@H](O)[C@H](C)O2)Oc2ccc(cc2Cl)[C@H]1O` [Vancomycin], the “Increase of MIC between isolates” value in series [1] is listed as more than 5 fold.
As for `CNC(C)C1CCC(N)C(OC2C(N)CC(N)C(OC3OCC(C)(O)C(NC)C3O)C2O)O1` (centres unmarked) [Gentamicin], the MIC in series [1] (Staphylococcus epidermidis) and in series [1] (setting [4]) was more than 8 µg/mL in each case.
With `COc1cccc(OC)c1C(=O)N[C@@H]1C(=O)N2[C@@H]1SC(C)(C)[C@@H]2C(=O)O` [methicillin], the “Susceptibility of the strain (in words)” value in series [1] (STA1, Day 24) was “resistant”.
Turning to `CC[C@H]1OC(=O)[C@H](C)[C@@H](O[C@H]2C[C@@](C)(OC)[C@@H](O)[C@H](C)O2)[C@H](C)[C@@H](O[C@@H]2O[C@H](C)C[C@H](N(C)C)[C@H]2O)[C@](C)(O)C[C@@H](C)C(=O)[C@H](C)[C@@H](O)[C@]1(C)O` [Erythromycin], the MIC in series [1] (Staphylococcus epidermidis) and in series [1] (setting [4]) was more than 4 µg/mL in each case.
